According to publication PMC6759624, “Unraveling Heparan Sulfate Proteoglycan Binding Motif for Cancer Cell Selectivity” (Frontiers in Oncology, 2019):

T1: recombinant human glypican-4 (human, UniProt O75487 19-529)
T1 construct: also called GPC4; rHSPG; source: bought: R&D Systems; from the Chinese Hamster Ovary cell line
T1 sequence (looked up): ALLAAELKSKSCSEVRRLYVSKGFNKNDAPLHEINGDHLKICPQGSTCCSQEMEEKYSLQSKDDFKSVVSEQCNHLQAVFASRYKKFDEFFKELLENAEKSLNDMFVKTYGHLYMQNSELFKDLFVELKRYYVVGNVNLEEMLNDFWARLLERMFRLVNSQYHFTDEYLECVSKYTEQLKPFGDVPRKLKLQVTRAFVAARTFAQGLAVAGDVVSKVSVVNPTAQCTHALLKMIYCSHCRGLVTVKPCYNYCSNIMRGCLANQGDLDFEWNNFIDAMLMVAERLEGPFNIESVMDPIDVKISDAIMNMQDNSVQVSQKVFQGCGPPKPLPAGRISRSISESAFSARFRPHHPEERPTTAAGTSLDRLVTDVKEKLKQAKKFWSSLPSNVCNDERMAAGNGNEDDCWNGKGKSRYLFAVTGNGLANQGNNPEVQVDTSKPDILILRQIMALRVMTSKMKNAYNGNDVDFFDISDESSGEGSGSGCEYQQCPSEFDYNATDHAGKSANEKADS

B1: Syndecan-4: full-length recombinant human HSPG from mouse myeloma cell line (NS0), R&D Systems (protein)
chain: ESIRETEVIDPQDLLEGRYFSGALPDDEDVVGPGQESDDFELSGSGDLDDLEDSMIGPEVVHPLVPLDNHIPERAGSGSQVPTEPKKLEENEVIPKRISPVEESEDVSNKVSMSSTVQGSNIFERTEVLAALIVGGIVGILFAVFLILLLMYRMKKKDEGSYDLGKKPIYKKAPTNEFYA
B2: NT4-biotin (pyELYENKPRRPYIL)4K2K-PEG12-K(biotin) (peptide)
peptide: ELYENKPRRPYIL
modifications: pyroglutamate at position 1 (pyE); the four arms are built on a branching core of lysines, K2K-PEG12-K(biotin)
notes: the 13-amino-acid arm of the tetrabranched peptide; the first letter is pyroglutamate (printed pyE); Tetrabranched: four copies of the arm joined by their C-termini to the amines of a three-lysine core (K2K), followed by PEG12 and Lys(biotin); The core is not written as a chain; also called NT4 peptide; NT4 conjugated with biotin; source: synthetic peptide (Fmoc chemistry, HPLC purified); not …
B3: Glypican-4: full-length recombinant human HSPG from Chinese Hamster Ovary cell line, R&D Systems (protein)
chain: T1 sequence (looked up)

Experiments:
[1] = tested on: NT4 (NT4-biotin captured on streptavidin CM5 chip); assay: SPR, synthetic sulfated oligosaccharides injected over immobilized NT4; format: binding; details: for oligosaccharide binding to immobilized NT4 (in words): oligosaccharide 100 μg/ml (Figure 4E); for Kd (koff) / Ka (Kon) / Kd: immobilized NT4-biotin, HBS-EP+ pH 7.4, 1:1 Langmuir model, oligosaccharide as analyte; for Kd (koff): dissociation rate
Excerpt: Eight-mer and nine-mer oligosaccharides S00 (GlcNAc-GlcA)4 α-paranitrophenyl, S04 (GlcNS-GlcA)4 α-paranitrophenyl, S06a (GlcA-GlcNS)2-(GlcA-GlcNS,6S)2-GlcA α-paranitrophenyl (9-mer), and S06b GlcNS-GlcA-GlcNS-IdoA,2S-GlcNS-IdoA,2S-GlcNS-GlcA α-paranitrophenyl were purchased from Iduron. In all oligosaccharides, the units were linked together by α (1–4) bonds only and carry a paranitrophenyl group. S12 (ΔHexA,2S α1-4 GlcNS,6S)3 (9-mer) was from Amsbio, and its first glycoside is unsaturated.
(§1) NT4-biotin was captured on a CM5 sensor chip where streptavidin had previously been immobilized by standard amine coupling. Briefly, the sensor chip surface was activated with a mixture of 0.1 M 1-ethyl-3(3-dimethylaminopropyl)-carbodiimide (EDC) and 0.4 M N-hydroxyl succinimide (NHS) for 7 min at a flow rate of 5 μl/min. Streptavidin was injected over the surface for 7 min, and finally, 1 M ethanolamine pH 8.5 was used to block any activated carboxyl groups. NT4-biotin, diluted in HBS-EP+ (Hepes 10 mM, NaCl 150 mM, EDTA 3.4 mM, 0.05% p20, pH 7.4) to 30 μg/ml, was injected for 2 min at a flow rate of 10 μl/min.
(§2) HSPG and oligosaccharides were diluted to different concentrations in HBS-EP+ and then injected over immobilized NT4 peptides. The sensor chip surface was regenerated with a short pulse of 10 mM NaOH/0.5 M NaCl 5 min after the end of the injections.
(§3) Kinetics were analyzed with the Biacore T100 evaluation 1.1.1 software using the 1:1 Langmuir model to fit the curves.

[2] = tested on: NT4 (NT4-biotin captured on streptavidin CM5 chip); assay: SPR, rHSPG injected over immobilized NT4 (Biacore T100); format: binding; details: for Ka (Kon): HBS-EP+ (Hepes 10 mM, NaCl 150 mM, EDTA 3.4 mM, 0.05% p20, pH 7.4), 1:1 Langmuir model, full-length recombinant human HSPG as analyte; for Kd (koff) / Kd: HBS-EP+ pH 7.4, 1:1 Langmuir model, rHSPG as analyte; for Kd (koff): dissociation rate
Experimental: Experiments were performed on a Biacore T100 instrument (GE Healthcare). All materials were purchased from GE Healthcare unless otherwise specified. Full-length recombinant human HSPG were purchased from R&D Systems. Syndecan-3, syndecan-4, and glypican-3 were obtained from the mouse myeloma cell line (NS0), and glypican-4 was obtained from the Chinese Hamster Ovary cell line. The activity of syndecan-4, glypican-3, and glypican-4 was measured by the supplier as the ability of the immobilized protein to bind FGF-basic. The activity of syndecan-3 was measured by the supplier as the ability of the immobilized protein to inhibit adhesion of Saos-2 human osteosarcoma cells to human fibronectin.
as §1, §2, §3

cancer cell lines = details: confocal microscopy, 37°C; "completely internalized only after 2 h"; ref [14], [16]; cited from earlier work
living cells = details: after 24 h; mass spectrometry; ref [14]; cited from earlier work
[3] = target: recombinant human syndecan-4 (human, UniProt P31431 19-198); assay: SPR; Biacore T100; NT4-biotin captured on streptavidin on a CM5 chip; HSPG diluted in HBS-EP+ (Hepes 10 mM, NaCl 150 mM, EDTA 3.4 mM, 0.05% p20, pH 7.4) injected over it; 1:1 Langmuir model; details: both partners purified
[4] = target: recombinant human glypican-3 (human, UniProt P51654 25-580); assay: as above; details: both partners purified
[5] = target: T1, recombinant human glypican-4; assay: as above; details: both partners purified

Molecule | oligosaccharide binding to immobilized NT4 (in words) [1] | Ka (Kon) [2] [M⁻¹ s⁻¹] | Kd (koff) [2] [s⁻¹] | Kd [2] [nM] | Kd (koff) [1] [s⁻¹] | Ka (Kon) [1] [M⁻¹ s⁻¹] | Kd [1] [nM] | also measured
(GlcNS-GlcA)4 α-paranitrophenyl [S04] | almost total loss of binding | – | – | – | – | – | – | –
Glypican-3: full-length recombinant human HSPG from mouse myeloma cell line (NS0), R&D Systems | – | 23920 | 0.001433 | 59.9 | – | – | – | –
GlcNS-GlcA-GlcNS-IdoA,2S-GlcNS-IdoA,2S-GlcNS-GlcA α-paranitrophenyl [S06b] | – | – | – | – | 0.004039 | 1490 | 2700 | –
(GlcA-GlcNS)2-(GlcA-GlcNS,6S)2-GlcA α-paranitrophenyl [S06a] | bound NT4 better | – | – | – | 0.002575 | 1060 | 2430 | –
(ΔHexA,2S α1-4 GlcNS,6S)3 [S12] | best-binding oligosaccharide | – | – | – | 0.0009126 | 3530 | 258 | –
(pyELYENKPRRPYIL)4K2K-PEG12-K(biotin) [NT4-biotin] | – | – | – | – | – | – | – | time to complete internalization (cancer cell lines): 2 h; stability on degradation by living cells (living cells): still stable after 24 h
B1 | – | 9010 | 0.002316 | 257 | – | – | – | –
B2 | – | – | – | – | – | – | – | Kd [3]: 257 nM; koff [3]: 0.00232 s⁻¹; kon [3]: 9010 M⁻¹ s⁻¹; Kd [4]: 59.9 nM; koff [4]: 0.00143 s⁻¹; kon [4]: 23900 M⁻¹ s⁻¹; Kd [5]: 77.1 nM; koff [5]: 0.000672 s⁻¹; kon [5]: 8710 M⁻¹ s⁻¹
B3 | – | 8710 | 0.0006719 | 77.1 | – | – | – | –
